target: TNFα trimer (Homo sapiens, UniProt P01375); experiment: TNFα FP Competitive Binding Assay; settings: FP binding assay; 20 nM TNFα trimer, 1 nM OregonGreen488 probe; read-out: TNF IC50
Summary of the method: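 Fluorescence polarization competition: 20 nM TNFα trimer with 1 nM fluorescein-labelled probe in HEPES/NaCl/EDTA/Triton X-100 buffer, compound in 12-point 1:3 dilutions (final top 338 μM or 100 μM). Incubated 18-24 h, background-subtracted mP read, variable-slope dose-response fitting.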

TNFα trimer, sequence (P01375 77-233 limits assumed): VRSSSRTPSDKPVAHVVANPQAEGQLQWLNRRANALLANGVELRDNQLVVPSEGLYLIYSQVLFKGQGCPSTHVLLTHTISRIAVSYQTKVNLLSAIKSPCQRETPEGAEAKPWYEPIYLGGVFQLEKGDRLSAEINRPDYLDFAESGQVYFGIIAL

| Structure (SMILES) | IC50 |
| --- | --- |
| Cn1c(=O)c2ccc(-c3cnc(NC4CCNC(=O)C4)nc3)cc2n1Cc1cc(CO)ccc1OC(F)F (centres unmarked) [Example 16.5] | < 1 µM |
| C[C@@H]1CN(c2ncc(-c3ccc4c(=O)n(C)n(Cc5ccccc5Cl)c4c3C#N)cn2)CCN1C(=O)CO [Example 71, (R)-1-(2-Chlorobenzyl)-6-(2-(4-(2-hydroxyacetyl)-3-methylpiperazin-1-yl)pyrimidin-5-yl)-2-methyl-3-oxo-2,3-dihydro-1H-indazole-7-carbonitrile] | 1 to 10 µM |
| Cn1c(=O)c2ccc(-c3cnc(N4CCOC(C)(C)C4)nc3)cc2n1Cc1ccccc1OC(F)F [Example 2, 1-(2-(Difluoromethoxy)benzyl)-6-(2-(2,2-dimethylmorpholino)pyrimidin-5-yl)-2-methyl-1H-indazol-3(2H)-one] | < 1 µM |
| Cn1c(=O)c2cnc(-c3cnc(N4CCOCC4)nc3)cc2n1Cc1ccccc1OC(F)F [Example 17, 1-(2-(Difluoromethoxy)benzyl)-2-methyl-6-(2-morpholinopyrimidin-5-yl)-1H-pyrazolo[4,3-c]pyridin-3(2H)-one] | > 10 µM |
| Cn1c(=O)c2ccc(-c3cnc(N4CC5(CC5C(=O)O)C4)nc3)cc2n1Cc1ccccc1OC(F)F (centres unmarked) [Example 2.14] | > 10 µM |
| Cc1cc2c(=O)n(C)n(Cc3ccccc3OC(F)F)c2cc1-c1cnc(N2CCNC(=O)C2)nc1 [Example 13.2] | 1 to 10 µM |
| Cc1ccc(OC(F)F)c(Cn2c3cc(-c4cnc(N5CCN(C(=O)CN)[C@H](C)C5)nc4)ccc3c(=O)n2C)c1 [Example 14.10] | < 1 µM |
| CC(=O)N1CCN(c2ncc(-c3ccc4c(=O)n(C)n(Cc5cc(CC(C)O)ccc5OC(F)F)c4c3)cn2)C[C@H]1C (stereo partly drawn) [Example 114, 6-(2-((R)-4-Acetyl-3-methylpiperazin-1-yl)pyrimidin-5-yl)-1-(2-(difluoromethoxy)-5-(2-hydroxypropyl)benzyl)-2-methyl-1H-indazol-3(2H)-one] | 1 to 10 µM |
| COc1c[nH]nc1Cn1cc(Cn2c3cc(-c4cnc(C(C)(C)O)nc4)ccc3c(=O)n2C)c(C(F)(F)F)c1 [Example #130, 6-(2-(2-Hydroxypropan-2-yl)pyrimidin-5-yl)-1-((1-((4-methoxy-1H-pyrazol-3-yl)methyl)-4-(trifluoromethyl)-1H-pyrrol-3-yl)methyl)-2-methyl-1H-indazol-3(2H)-one] | < 1 µM |
| Cn1c(=O)c2ccc(-c3cnc(N4CCN5C(=O)NC[C@H]5C4)nc3)cc2n1Cc1cc(CO)ccc1OC(F)F [Example 18, (S)-7-(5-(1-(2-(Difluoromethoxy)-5-(hydroxymethyl)benzyl)-2-methyl-3-oxo-2,3-dihydro-1H-indazol-6-yl)pyrimidin-2-yl)hexahydroimidazo[1,5-a]pyrazin-3(2H)-one] | < 1 µM |
| Cn1c(=O)c2ccc(-c3cc(N4CCOCC4)ncc3Cl)cc2n1Cc1ccccc1OC(F)F [Example 4.1] | > 10 µM |
| Cn1c(=O)c2ccc(-c3cnc(N4CCN5C(=O)NC[C@H]5C4)nc3)cc2n1Cc1c(Cl)ccc2c1COC2 [Example 29.4] | < 1 µM |
| Cn1c(=O)c2ccc(-c3cnc(C(C)(C)O)nc3)cc2n1Cc1cc(NCc2cc[nH]n2)ccc1Cl [Example 43] | 1 to 10 µM |
| Cn1c(=O)c2ccc(-c3cnc(N4CC(C(=O)O)C4)nc3)cc2n1Cc1ccccc1OC(F)F [Example 2.13] | > 10 µM |
| Cn1c(=O)c2ccc(-c3cnc(N4CC[C@@H](O)C4)nc3)cc2n1Cc1ccccc1OC(F)F [Example 2.5] | > 10 µM |
| Cn1c(=O)c2ccc(-c3cnc(C(C)(C)O)nc3)cc2n1Cc1cc(Cn2cn[nH]c2=O)ccc1OC(F)F [Example 92, 1-(2-(Difluoromethoxy)-((5-oxo-1H-1,2,4-triazol-4(5H)-yl)methy)benzyl)-6-(2-(2-hydroxypropan-2-yl)pyrimidin-5-yl)-2-methyl-1H-indazol-3(2H)-one] | 1 to 10 µM |
| Cc1ccc(OC(F)F)c(Cn2c3cc(-c4cnn5c(C(C)(C)O)cnc5c4)ccc3c(=O)n2C)c1 [Example #135, 1-(2-(Difluoromethoxy)-5-methylbenzyl)-6-(3-(2-hydroxypropan-2-yl)imidazo[1,2-b]pyridazin-7-yl)-2-methyl-1H-indazol-3(2H)-one] | < 1 µM |
| CC(=O)N1CCN(c2ncc(-c3ccc4c(=O)n(C)n(Cc5cc(CO)ccc5C(F)(F)F)c4c3)cn2)CC1 [Example 115, 6-(2-(4-Acetylpiperazin-1-yl)pyrimidin-5-yl)-1-(5-(hydroxymethyl)-2-(trifluoromethyl)benzyl)-2-methyl-1H-indazol-3(2H)-one] | < 1 µM |
| CN(C)c1ncc(-c2ccc3c(=O)n(C)n(Cc4ccccc4OC(F)F)c3c2)cn1 [Example 10.15] | 1 to 10 µM |
| CC(=O)N1CCN(c2ncc(-c3ccc4c(=O)n(C)n(Cc5nc(C)ccc5Cl)c4c3)cn2)C[C@H]1C [Example 105, (R)-6-(2-(4-Acetyl-3-methylpiperazin-1-yl)pyrimidin-5-yl)-1-((3-chloro-6-methylpyridin-2-yl)methyl)-2-methyl-1,2-dihydro-3H-indazol-3-one] | < 1 µM |
| CC(C)[C@@H](N)C(=O)OCC(=O)N1CCN(c2ncc(-c3ccc4c(=O)n(C)n(Cc5ccccc5OC(F)F)c4c3)cn2)C[C@H]1C [Example 14.13] | < 1 µM |

| Structure (SMILES) | IC50 |
| --- | --- |
| CC(c1ccccc1OC(F)F)n1c2cc(-c3cnc(N4CCOCC4)nc3)ccc2c(=O)n1C (centres unmarked) [Example 1.5] | 1 to 10 µM |
| Cn1c(=O)c2ccc(-c3cnc(N4CCOCC4)nc3)cc2n1Cc1cnccc1Cl [Example 1.17] | > 10 µM |
| C[C@@H]1CN(c2ncc(-c3ccc4c(=O)n(C)n(Cc5ccccc5OC(F)F)c4c3)cn2)CCN1C(=O)[C@@H](O)CO [Example 38, 1-(2-(Difluoromethoxy)benzyl)-6-(2-((R)-4-((S)-2,3-dihydroxypropanoyl)-3-methylpiperazin-1-yl)pyrimidin-5-yl)-2-methyl-1H-indazol-3(2H)-one] | < 1 µM |
| COC(=O)NCc1ccc(OC(F)F)c(Cn2c3cc(-c4cnc(C(C)(C)O)nc4)ccc3c(=O)n2C)c1 [Example 26.3] | 1 to 10 µM |
| Cn1c(=O)c2ccc(-c3cnc(C(C)(C)O)nc3)cc2n1Cc1cc(CO)ccc1OC(F)F [Example 16.7] | < 1 µM |
| Cc1ccc(OC(F)F)c(Cn2c3cc(-c4cnc(N5CCN(C(=O)CO)[C@H](C)C5)nc4)ccc3c(=O)n2C)n1 [Example 76, (R)-1-((3-(Difluoromethoxy)-6-methylpyridin-2-yl)methyl)-6-(2-(4-(2-hydroxyacetyl)-3-methylpiperazin-1-yl)pyrimidin-5-yl)-2-methyl-1H-indazol-3(2H)-one] | < 1 µM |
| CCC(c1cccc(C)c1)n1c2cc(-c3cnc(N4CCN(C(=O)CO)[C@H](C)C4)nc3)ccc2c(=O)n1C (some centres unmarked) [Example 24.3] | < 1 µM |
| Cn1c(=O)c2ccc(-c3cnc(C(C)(C)O)nc3)cc2n1Cc1cc([C@H]2CC[C@@H](C#N)C2)ccc1OC(F)F (racemic) [Example 96, rac-(R,3S)-3-(4-(Difluoromethoxy)-3-((6-(2-(2-hydroxypropan-2-yl)pyrimidin-5-yl)-2-methyl-3-oxo-2,3-dihydro-1H-indazol-1-yl)methyl)phenyl)cyclopentane-1-carbonitrile] | 1 to 10 µM |
| Cc1ccc(OC(F)F)c(Cn2c3cc(-c4cnc(N5CCN6C(=O)NCC6C5)nc4)ccc3c(=O)n2C)c1 (single isomer, unassigned) [Example 8] | < 1 µM |
| C[C@@H]1CN(C(=O)CO)CCN1c1ncc(-c2ccc3c(=O)n(C)n(Cc4ccccc4OC(F)F)c3c2)cn1 [Example 10.14] | < 1 µM |
| Cn1c(=O)c2ccc(-c3cnc(C4(O)CN(C(=O)CO)C4)nc3)cc2n1Cc1ccccc1OC(F)F [Example 91, 1-(2-(Difluoromethoxy)benzyl)-6-(2-(3-hydroxy-1-(2-hydroxyacetyl)azetidin-3-yl)pyrimidin-5-yl)-2-methyl-1H-indazol-3(2H)-one] | 1 to 10 µM |
| Cn1c(=O)c2ccc(-c3cnc(C(C)(C)O)nc3)cc2n1Cc1cc(N2CCOCC2)ccc1OC(F)F [Example 125, 1-(2-(Difluoromethoxy)-5-morpholinobenzyl)-6-(2-(2-hydroxypropan-2-yl)pyrimidin-5-yl)-2-methyl-1H-indazol-3(2H)-one] | 1 to 10 µM |
| Cn1c(=O)c2ccc(-c3cnc(C(C)(C)O)nc3)cc2n1Cc1cc([C@@H]2CCC[C@@H]2C#N)ccc1OC(F)F (relative stereo) [Example 112, 2-(4-(Difluoromethoxy)-3-((6-(2-(2-hydroxypropan-2-yl)pyrimidin-5-yl)-2-methyl-3-oxo-2,3-dihydro-1H-indazol-1-yl)methyl)phenyl)cyclopentanecarbonitrile] | 1 to 10 µM |
| CC(=O)N1CCN(c2ncc(-c3ccc4c(=O)n(C)n(Cc5nc(C)ccc5C(F)(F)F)c4n3)cn2)C[C@H]1C [Example 73, (R)-6-(2-(4-Acetyl-3-methylpiperazin-1-yl)pyrimidin-5-yl)-2-methyl-1-((6-methyl-3-(trifluoromethyl)pyridin-2-yl)methyl)-1H-pyrazolo[3,4-b]pyridin-3(2H)-one] | < 1 µM |
| Cc1ccc(OC(F)F)c(Cn2c3cc(-c4cnc(N5CCN6C(=O)NC[C@H]6C5)nc4)ccc3c(=O)n2C)n1 [Example 29.6] | 1 to 10 µM |
| CC(C)[C@H](N)C(=O)OCC(=O)N1CCN(c2ncc(-c3ccc4c(=O)n(C)n(Cc5ccccc5OC(F)F)c4c3)cn2)C[C@H]1C [Example 14.12] | < 1 µM |
| Cc1ccc(OC(F)F)c(Cn2c3nc(-c4cnc(C(C)(C)O)nc4C)ccc3c(=O)n2C)c1 [Example 95, 1-(2-(Difluoromethoxy)-5-methylbenzyl)-6-(2-(2-hydroxypropan-2-yl)-4-methylpyrimidin-5-yl)-2-methyl-1,2-dihydro-3H-pyrazolo[3,4-b]pyridin-3-one] | 1 to 10 µM |
| Cc1ccc(OC(F)F)c(Cn2c3cc(-c4cnc(N5CCN(C(=O)CO)CC5)nc4)ccc3c(=O)n2C)c1 [Example 22.1] | < 1 µM |
| Cc1ccc(OC(F)F)c(Cn2c3cc(-c4cnc(N5CCC(C(N)=O)C5)nc4)ccc3c(=O)n2C)c1 (centres unmarked) [Example 20.1] | 1 to 10 µM |
| CC(=O)N1CCN(c2ncc(-c3ccc4c(=O)n(C)n(Cc5cc(C)ccc5OC(F)F)c4c3)cn2)[C@H](C)C1 [Example 20.4] | < 1 µM |

Source: patent publication US10160748B2 (AbbVie Inc., priority 2015, dated 2018)
